{"source": "patent US20250100998A1", "about": "“PARP7 INHIBITORS” (Gilead Sciences, Inc., priority 2023, published 2025)", "system": "STAT1 (phosphorylated at Tyr701) in NCI-H1373 cells", "assay": "Phospho-STAT1 (Tyr701) LANCE Ultra TR-FRET detection assay", "type": "cell-based", "conditions": "Homo sapiens, NCI-H1373, 48 h, induction of pSTAT1 in NCI-H1373 cells, 48 hours incubation; normalized to 10 uM positive control and DMSO; 4-parameter fit; read-out: NH1373 pSTAT1 EC50", "summary_of_the_method": "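Endogenous pSTAT1 (Tyr701) induction measured in NCI-H1373 cells seeded onto compound and incubated 48 h at 37 °C. Lysates assayed by LANCE Ultra sandwich TR-FRET; 665/620 nm ratio normalized to 10 uM reference […] (positive) and DMSO (negative). EC50 from 4-parameter fit.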", "data": [{"smiles": "CS(=O)(=O)c1cnc(-c2cc3c(F)cn(C[C@@H]4CCC[C@H](Nc5cn[nH]c(=O)c5C(F)(F)F)C4)c(=O)c3c(F)c2F)nc1", "note": "[Example 41]", "values": [{"measurement": "EC50", "result": 3.25, "unit": "nM"}]}, {"smiles": "COc1nc(-c2cc3ccn(C[C@@H]4CCC[C@H](Nc5cn[nH]c(=O)c5C(F)(F)F)C4)c(=O)c3c(F)c2F)ncc1C#N", "note": "[Example 22, 2-(7,8-difluoro-1-oxo-2-(((1R,3S)-3-((6-oxo-5-(trifluoromethyl)-1,6-dihydropyridazin-4-yl)amino)cyclohexyl)methyl)-1,2-dihydroisoquinolin-6-yl)-4-methoxypyrimidine-5-carbonitrile]", "values": [{"measurement": "EC50", "result": 2.42, "unit": "nM"}]}, {"smiles": "[2H]C([2H])([2H])Oc1cnc(-c2cc3c(F)cn(C[C@@H]4CCC[C@H](Nc5cn[nH]c(=O)c5C(F)(F)F)C4)c(=O)c3cc2F)nc1", "note": "[Example 45, 4,7-difluoro-2-[[(1R,3S)-3-[[6-oxo-5-(trifluoromethyl)-1H-pyridazin-4-yl]amino]cyclohexyl]methyl]-6-[5-(trideuteriomethoxy)pyrimidin-2-yl]isoquinolin-1-one]", "values": [{"measurement": "EC50", "result": 10.5, "unit": "nM"}]}, {"smiles": "O=c1[nH]ncc(N[C@H]2CCC[C@@H](Cn3ccc4cc(-c5ncc(OCC(F)F)cn5)c(F)cc4c3=O)C2)c1C(F)(F)F", "note": "[Example 14, 6-(5-(2,2-difluoroethoxy)pyrimidin-2-yl)-7-fluoro-2-(((1R,3S)-3-((6-oxo-5-(trifluoromethyl)-1,6-dihydropyridazin-4-yl)amino)cyclohexyl)methyl)isoquinolin-1(2H)-one]", "values": [{"measurement": "EC50", "result": 44.2, "unit": "nM"}]}, {"smiles": "[2H]C([2H])([2H])Oc1cnc(-c2cc3c(F)cn(C[C@@H]4CCC[C@H](Nc5cn[nH]c(=O)c5C(F)(F)F)C4)c(=O)c3c(F)c2F)nc1", "note": "[Example 46, 4,7,8-trifluoro-2-[[(1R,3S)-3-[[6-oxo-5-(trifluoromethyl)-1H-pyridazin-4-yl]amino]cyclohexyl]methyl]-6-[5-(trideuteriomethoxy)pyrimidin-2-yl]isoquinolin-1-one]", "values": [{"measurement": "EC50", "result": 1.19, "unit": "nM"}]}]}
